# From patent US20250382305A1 (PTC THERAPEUTICS, INC., priority 2022, published 2025)
# Key:
# ATXN3 pre-mRNA = assay: RT-qPCR Assay to Quantify Exon 4 Skipping in ATXN3 pre-mRNA in Cells; type: cell-based; conditions: percent exon 4 skipping in ATXN3 pre-mRNA, RT-qPCR of cell lysates; average IC50
# How it was run: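 Cells plated at 10,000/well onto a 7-point, 3.16-fold DMSO dilution series (duplicates), incubated 24 h at 37 °C, then lysed. Exon 4 skipping measured by one-step RT-qPCR (48 °C RT, 40 cycles); IC50 interpolated from dose-response fit of percent skipping.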
# [1] = test system: Total ATXN3 (tATXN3) protein; assay: Endogenous Total ATXN3 (tATXN3) Protein Assay (MSD immunoassay of cell lysates); type: cell-based; conditions: average IC50, total ATXN3 protein in cell lysate after 48 h with compound (Table 1)
# How it was run: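 Cells in DMEM/10% FBS were plated at 10,000 per well onto 7-point, 3.16-fold compound dilutions in duplicate for 48 h at 37° C, then lysed. Total ATXN3 in lysates was measured by MSD sandwich immunoassay: mouse anti-ATXN3 capture, rabbit anti-ATXN3 detection, SULFO-TAG anti-rabbit. Average IC50 was reported in star bins.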
IC50 (ATXN3 pre-mRNA),IC50 [1],SMILES
≤ 30 nM,≤ 30 nM,"N[C@H]1CC=CC[C@@H]1c1sc2c(NCc3ccco3)cc(Cl)nc2c1Br [Compound 206, 2-((1S,6S)-6-aminocyclohex-3-en-1-yl)-3-bromo-5-chloro-N-(furan-2-ylmethyl)thieno[3,2-b]pyridin-7-amine]"
≤ 30 nM,≤ 30 nM,"N[C@H]1CC=CC[C@@H]1c1sc2c(NCc3ccccc3)cc(Cl)nc2c1Cl [Compound 207, 2-((1S,6S)-6-aminocyclohex-3-en-1-yl)-N-benzyl-3,5-dichlorothieno[3,2-b]pyridin-7-amine]"
≤ 30 nM,≤ 30 nM,"C#Cc1c([C@H]2CCCC[C@@H]2N)sc2c(NCc3ccccc3)cc(Cl)nc12 [Compound 210, 2-((1S,2S)-2-aminocyclohexyl)-N-benzyl-5-chloro-3-ethynylthieno[3,2-b]pyridin-7-amine]"
≤ 30 nM,≤ 30 nM,"N[C@H]1CC=CC[C@@H]1c1sc2c(NCc3cccs3)cc(Cl)nc2c1C#CC[C@@H](O)CO [Compound 211, (R)-5-(2-((1S,6S)-6-aminocyclohex-3-en-1-yl)-5-chloro-7-((thiophen-2-ylmethyl)amino)thieno[3,2-b]pyridin-3-yl)pent-4-yne-1,2-diol]"
≤ 30 nM,≤ 30 nM,"[2H]C1=C([2H])C([2H])([2H])[C@H](c2sc3c(NCc4ccco4)cc(Cl)nc3c2C)[C@@H](N)C1([2H])[2H] [Compound 212, 2-((1S,6S)-6-aminocyclohex-3-en-1-yl-2,2,3,4,5,5-d6)-5-chloro-N-(furan-2-ylmethyl)-3-methylthieno[3,2-b]pyridin-7-amine]"
≤ 30 nM,≤ 30 nM,"N[C@H]1CC=CC[C@@H]1c1sc2c(NCc3ccncc3)nc(Cl)nc2c1Cl [Compound 214, 6-((1S,6S)-6-aminocyclohex-3-en-1-yl)-2,7-dichloro-N-(pyridin-4-ylmethyl)thieno[3,2-d]pyrimidin-4-amine]"
≤ 30 nM,≤ 30 nM,"N[C@H]1CC=CC[C@@H]1c1sc2c(NCc3cccs3)cc(Cl)nc2c1C#CC[C@H](O)CO [Compound 216, (S)-5-(2-((1S,6S)-6-aminocyclohex-3-en-1-yl)-5-chloro-7-((thiophen-2-ylmethyl)amino)thieno[3,2-b]pyridin-3-yl)pent-4-yne-1,2-diol]"
≤ 30 nM,≤ 30 nM,"N[C@H]1CC=CC[C@@H]1c1sc2c(NCc3ccsc3)cc(Cl)nc2c1Br [Compound 217, 2-((1S,6S)-6-aminocyclohex-3-en-1-yl)-3-bromo-5-chloro-N-(thiophen-3-ylmethyl)thieno[3,2-b]pyridin-7-amine]"
≤ 30 nM,≤ 30 nM,"N[C@H]1CCOC[C@@H]1c1sc2c(NCc3ccccc3)cc(Cl)nc2c1Cl [Compound 218, 2-((3R,4S)-4-aminotetrahydro-2H-pyran-3-yl)-N-benzyl-3,5-dichlorothieno[3,2-b]pyridin-7-amine]"
≤ 30 nM,≤ 30 nM,"CC#CCNc1nc(Cl)nc2c(I)c([C@H]3CC=CC[C@@H]3N)sc12 [Compound 219, 6-((1S,6S)-6-aminocyclohex-3-en-1-yl)-N-(but-2-yn-1-yl)-2-chloro-7-iodothieno[3,2-d]pyrimidin-4-amine]"
≤ 30 nM,≤ 30 nM,"Cc1c([C@@H]2CC=CC[C@H]2N)sc2c(NCc3cccs3)cc(Cl)nc12 [Compound 220, 2-((1R,6R)-6-aminocyclohex-3-en-1-yl)-5-chloro-3-methyl-N-(thiophen-2-ylmethyl)thieno[3,2-b]pyridin-7-amine]"
≤ 30 nM,≤ 30 nM,"N[C@H]1CCC(=O)C[C@@H]1c1sc2c(NCc3ccco3)cc(Cl)nc2c1Cl [Compound 221, (3S,4S)-4-amino-3-(3,5-dichloro-7-((furan-2-ylmethyl)amino)thieno[3,2-b]pyridin-2-yl)cyclohexan-1-one]"
≤ 30 nM,≤ 30 nM,"Cc1c([C@H]2CC=CC[C@@H]2N)sc2c(NCc3cccs3)cc(Cl)nc12 [Compound 222, 2-((1S,6S)-6-aminocyclohex-3-en-1-yl)-5-chloro-3-methyl-N-(thiophen-2-ylmethyl)thieno[3,2-b]pyridin-7-amine]"
≤ 30 nM,≤ 30 nM,"Cc1c([C@H]2CC=CC[C@@H]2N)sc2c(NCc3nccs3)nc(Cl)nc12 [Compound 223, 6-((1S,6S)-6-aminocyclohex-3-en-1-yl)-2-chloro-7-methyl-N-(thiazol-2-ylmethyl)thieno[3,2-d]pyrimidin-4-amine]"
≤ 30 nM,≤ 30 nM,"N[C@H]1CCCO[C@@H]1c1c(I)c2nc(Cl)nc(NCc3ccco3)c2n1C(F)F [Compound 225, 6-((2S,3S)-3-aminotetrahydro-2H-pyran-2-yl)-2-chloro-5-(difluoromethyl)-N-(furan-2-ylmethyl)-7-iodo-5H-pyrrolo[3,2-d]pyrimidin-4-amine]"
≤ 30 nM,≤ 30 nM,"N[C@H]1CC=CC[C@@H]1c1sc2c(NCc3ccccc3)nc(Cl)nc2c1I [Compound 229, 6-((1S,6S)-6-aminocyclohex-3-en-1-yl)-N-benzyl-2-chloro-7-iodothieno[3,2-d]pyrimidin-4-amine]"
≤ 30 nM,≤ 30 nM,"CC#CCNc1cc(Cl)nc2c(Br)c([C@H]3CC=CC[C@@H]3N)sc12 [Compound 230, 2-((1S,6S)-6-aminocyclohex-3-en-1-yl)-3-bromo-N-(but-2-yn-1-yl)-5-chlorothieno[3,2-b]pyridin-7-amine]"
≤ 30 nM,≤ 30 nM,"Cc1c([C@H]2CCCC[C@@H]2N)sc2c(NCc3ccco3)cc(Cl)nc12 [Compound 231, 2-((1S,2S)-2-aminocyclohexyl)-5-chloro-N-(furan-2-ylmethyl)-3-methylthieno[3,2-b]pyridin-7-amine]"
≤ 30 nM,≤ 30 nM,"Cc1c([C@H]2COCC[C@@H]2N)sc2c(NCc3cccs3)cc(Cl)nc12 [Compound 232, 2-((3R,4S)-4-aminotetrahydro-2H-pyran-3-yl)-5-chloro-3-methyl-N-(thiophen-2-ylmethyl)thieno[3,2-b]pyridin-7-amine]"
≤ 30 nM,≤ 30 nM,"CC1=C(C)C[C@H](N)[C@@H](c2sc3c(NCc4ccco4)cc(Cl)nc3c2Cl)C1 [Compound 233, 2-((1S,6S)-6-amino-3,4-dimethylcyclohex-3-en-1-yl)-3,5-dichloro-N-(furan-2-ylmethyl)thieno[3,2-b]pyridin-7-amine]"
≤ 30 nM,≤ 30 nM,"Cc1c([C@H]2CC=CC[C@@H]2N)sc2c(NCc3ccncc3)nc(Cl)nc12 [Compound 234, 6-((1S,6S)-6-aminocyclohex-3-en-1-yl)-2-chloro-7-methyl-N-(pyridin-4-ylmethyl)thieno[3,2-d]pyrimidin-4-amine]"
≤ 30 nM,≤ 30 nM,"N[C@H]1CC=CC[C@@H]1c1sc2c(NCc3cccs3)cc(Cl)nc2c1C#CCCCCO [Compound 235, 6-(2-((1S,6S)-6-aminocyclohex-3-en-1-yl)-5-chloro-7-((thiophen-2-ylmethyl)amino)thieno[3,2-b]pyridin-3-yl)hex-5-yn-1-ol]"
≤ 30 nM,≤ 30 nM,"N[C@H]1CC=CC[C@@H]1c1sc2c(NCc3ccncc3F)nc(Cl)nc2c1Cl [Compound 236, 6-((1S,6S)-6-aminocyclohex-3-en-1-yl)-2,7-dichloro-N-((3-fluoropyridin-4-yl)methyl)thieno[3,2-d]pyrimidin-4-amine]"
